Source: the NIST ThermoML archive (doi:10.1021/je060247x)
Numbers after ± are expanded uncertainties.

Details: Liquid

CCCCn1cc[n+](C)c1C.F[P-](F)(F)(F)(F)F [1-butyl-2,3-dimethylimidazolium hexafluorophosphate]
mass density [kg/m3]
Details	313.15 K	323.15 K	333.15 K	343.15 K	353.15 K	363.15 K	373.15 K	383.15 K	393.15 K
100 kPa	1339.6 ± 3.4	1330.9 ± 3.4	1321.9 ± 3.3	1313.5 ± 3.2	1305.4 ± 3.2	1297.6 ± 3.1	1290.6 ± 3.1	1283.4 ± 3	1276.1 ± 3
1000 kPa	1340 ± 3.6	1331.4 ± 3.5	1322.4 ± 3.4	1314.1 ± 3.4	1306 ± 3.3	1298.2 ± 3.3	1291.2 ± 3.2	1284 ± 3.2	1276.8 ± 3.1
2000 kPa	1340.7 ± 3.7	1331.9 ± 3.7	1323 ± 3.6	1314.6 ± 3.5	1306.6 ± 3.5	1298.8 ± 3.4	1291.9 ± 3.4	1284.7 ± 3.3	1277.4 ± 3.3
3000 kPa	1341.2 ± 3.9	1332.5 ± 3.8	1323.5 ± 3.7	1315.2 ± 3.7	1307.2 ± 3.6	1299.4 ± 3.5	1292.5 ± 3.5	1285.3 ± 3.4	1278.1 ± 3.4
4000 kPa	1341.6 ± 4	1333.1 ± 4	1324.1 ± 3.9	1315.8 ± 3.8	1307.8 ± 3.8	1300.1 ± 3.7	1293.2 ± 3.6	1286 ± 3.6	1278.8 ± 3.5
5000 kPa	1342.1 ± 4.2	1333.6 ± 4.1	1324.6 ± 4.1	1316.3 ± 4	1308.3 ± 3.9	1300.7 ± 3.8	1293.8 ± 3.8	1286.6 ± 3.7	1279.4 ± 3.7
10000 kPa	1344.6 ± 5	1336.2 ± 4.9	1327.2 ± 4.8	1319.1 ± 4.7	1311.1 ± 4.7	1303.6 ± 4.6	1296.7 ± 4.5	1289.7 ± 4.4	1282.6 ± 4.3

CCCCn1cc[n+](C)c1.F[B-](F)(F)F [1-butyl-3-methylimidazolium tetrafluoroborate]
mass density [kg/m3]
Details	100 kPa	1000 kPa	2000 kPa	3000 kPa	4000 kPa	5000 kPa	10000 kPa
293.15 K	1206.9 ± 2.5	1207.3 ± 2.6	1207.7 ± 2.7	1208.2 ± 2.8	1208.7 ± 2.9	1209.1 ± 3	1211.3 ± 3.5
303.15 K	1198.6 ± 2.5	1199.1 ± 2.6	1199.6 ± 2.6	1200.1 ± 2.7	1200.7 ± 2.8	1201.1 ± 2.9	1203.5 ± 3.4
313.15 K	1190.8 ± 2.4	1191.3 ± 2.5	1191.8 ± 2.6	1192.2 ± 2.7	1192.7 ± 2.8	1193.2 ± 2.9	1195.5 ± 3.3
323.15 K	1183 ± 2.4	1183.5 ± 2.4	1184 ± 2.5	1184.5 ± 2.6	1185 ± 2.7	1185.5 ± 2.8	1187.8 ± 3.3
333.15 K	1175.8 ± 2.3	1176.3 ± 2.4	1176.9 ± 2.5	1177.4 ± 2.6	1177.9 ± 2.6	1178.4 ± 2.7	1181 ± 3.2
343.15 K	1168.4 ± 2.3	1168.9 ± 2.3	1169.3 ± 2.4	1169.8 ± 2.5	1170.3 ± 2.6	1170.8 ± 2.7	1173.1 ± 3.1
353.15 K	1161.3 ± 2.2	1161.8 ± 2.3	1162.4 ± 2.4	1163 ± 2.5	1163.5 ± 2.5	1164.1 ± 2.6	1166.6 ± 3
363.15 K	1154.7 ± 2.2	1155.3 ± 2.2	1155.8 ± 2.3	1156.4 ± 2.4	1156.9 ± 2.5	1157.5 ± 2.6	1160.1 ± 3
373.15 K	1148.2 ± 2.1	1148.8 ± 2.2	1149.3 ± 2.3	1149.9 ± 2.4	1150.4 ± 2.4	1151 ± 2.5	1153.6 ± 2.9
383.15 K	1142 ± 2.1	1142.5 ± 2.2	1143.1 ± 2.2	1143.7 ± 2.3	1144.3 ± 2.4	1144.8 ± 2.5	1147.6 ± 2.8
393.15 K	1136.1 ± 2.1	1136.7 ± 2.1	1137.3 ± 2.2	1137.9 ± 2.3	1138.4 ± 2.3	1139 ± 2.4	1141.9 ± 2.8

CCCCn1cc[n+](C)c1.O=S(=O)([O-])C(F)(F)F [1-butyl-3-methylimidazolium trifluoromethanesulfonate]
mass density [kg/m3]
Details	100 kPa	1000 kPa	2000 kPa	3000 kPa	4000 kPa	5000 kPa	10000 kPa
293.15 K	1306.1 ± 1.5	1306.6 ± 1.6	1307.1 ± 1.7	1307.7 ± 1.8	1308.2 ± 1.9	1308.8 ± 2	1311.5 ± 2.5
303.15 K	1296.6 ± 1.5	1297.1 ± 1.6	1297.7 ± 1.7	1298.3 ± 1.8	1298.9 ± 1.9	1299.5 ± 2	1302.3 ± 2.5
313.15 K	1287.6 ± 1.5	1288.1 ± 1.6	1288.7 ± 1.7	1289.3 ± 1.7	1289.9 ± 1.8	1290.5 ± 1.9	1293.3 ± 2.4
323.15 K	1278.7 ± 1.4	1279.3 ± 1.5	1280 ± 1.6	1280.7 ± 1.7	1281.3 ± 1.8	1282 ± 1.9	1285 ± 2.3
333.15 K	1270.5 ± 1.4	1271.1 ± 1.5	1271.7 ± 1.6	1272.4 ± 1.7	1273.1 ± 1.8	1273.8 ± 1.8	1276.9 ± 2.3
343.15 K	1262.5 ± 1.4	1263.1 ± 1.5	1263.8 ± 1.5	1264.5 ± 1.6	1265.2 ± 1.7	1265.8 ± 1.8	1269.1 ± 2.2
353.15 K	1254 ± 1.4	1254.7 ± 1.4	1255.3 ± 1.5	1256 ± 1.6	1256.7 ± 1.7	1257.4 ± 1.8	1260.7 ± 2.2
363.15 K	1246.8 ± 1.4	1247.5 ± 1.4	1248.3 ± 1.5	1249 ± 1.6	1249.7 ± 1.6	1250.4 ± 1.7	1253.8 ± 2.1
373.15 K	1239.6 ± 1.3	1240.3 ± 1.4	1241.1 ± 1.5	1241.8 ± 1.5	1242.5 ± 1.6	1243.2 ± 1.7	1246.6 ± 2.1
383.15 K	1232.4 ± 1.3	1233.1 ± 1.4	1233.9 ± 1.4	1234.6 ± 1.5	1235.4 ± 1.6	1236.1 ± 1.7	1239.7 ± 2
393.15 K	1225.3 ± 1.3	1226.1 ± 1.4	1226.8 ± 1.4	1227.6 ± 1.5	1228.4 ± 1.6	1229.1 ± 1.6	1232.7 ± 2

CCCCCCn1cc[n+](C)c1.F[P-](F)(F)(F)(F)F [1-hexyl-3-methylimidazolium hexafluorophosphate]
mass density [kg/m3]
Details	100 kPa	1000 kPa	2000 kPa	3000 kPa	4000 kPa	5000 kPa	10000 kPa
293.15 K	1299.8 ± 3.1	1300.3 ± 3.3	1300.8 ± 3.4	1301.4 ± 3.6	1301.9 ± 3.7	1302.4 ± 3.8	1304.9 ± 4.6
303.15 K	1290.6 ± 3.1	1291.1 ± 3.2	1291.7 ± 3.3	1292.2 ± 3.5	1292.7 ± 3.6	1293.2 ± 3.8	1295.8 ± 4.5
313.15 K	1281.5 ± 3	1282 ± 3.1	1282.6 ± 3.3	1283.1 ± 3.4	1283.7 ± 3.5	1284.3 ± 3.7	1287 ± 4.4
323.15 K	1272.7 ± 3	1273.2 ± 3.1	1273.9 ± 3.2	1274.5 ± 3.3	1275 ± 3.5	1275.6 ± 3.6	1278.5 ± 4.3
333.15 K	1264.2 ± 2.9	1264.8 ± 3	1265.4 ± 3.1	1266 ± 3.3	1266.6 ± 3.4	1267.3 ± 3.5	1270.3 ± 4.2
343.15 K	1256.1 ± 2.8	1256.7 ± 3	1257.3 ± 3.1	1258 ± 3.2	1258.6 ± 3.3	1259.2 ± 3.5	1262 ± 4.1
353.15 K	1248 ± 2.8	1248.6 ± 2.9	1249.2 ± 3	1249.9 ± 3.1	1250.5 ± 3.3	1251.2 ± 3.4	1254.2 ± 4
363.15 K	1240.6 ± 2.7	1241.2 ± 2.9	1242 ± 3	1242.6 ± 3.1	1243.3 ± 3.2	1244 ± 3.3	1247.2 ± 3.9
373.15 K	1233.4 ± 2.7	1234.1 ± 2.8	1234.9 ± 2.9	1235.6 ± 3	1236.3 ± 3.2	1237 ± 3.3	1240.3 ± 3.9
383.15 K	1226.4 ± 2.7	1227.2 ± 2.8	1227.9 ± 2.9	1228.7 ± 3	1229.4 ± 3.1	1230.1 ± 3.2	1233.6 ± 3.8
393.15 K	1219.4 ± 2.6	1220.1 ± 2.7	1220.9 ± 2.8	1221.7 ± 2.9	1222.5 ± 3	1223.3 ± 3.2	1227 ± 3.7
